# Test results published in patent US20050037949A1, “Mannose binding lectin and uses thereof” (priority 2002, published 2005).
# Non-standard residues stand in square brackets, D forms with d. No end group written: not given here. *: point of attachment. Dnp = O=[N+]([O-])c1ccc(*)c([N+](=O)[O-])c1; 2Abz = Nc1ccccc1C(=O)O
# Key:
# [1] = test system: MASPs in purified MBL-MASP complex; assay: Substrate cleavage assay: kinetic constants of MASP proteolytic activity on synthetic C4-based substrates; type: biochemical; settings: proteolytic activity of MASPs in purified MBL-MASP complex on the synthetic substrate; sigmoidal kinetics
# Procedure: For quantitative measurements, typically the signal emitted by the label is measured from the beginning of the reaction and the results used to obtain an initial rate. Substrates consisting only of the residues N-terminal to the cleavage site of C4 show normal Michaelis-Menten kinetics for their cleavage by both C1s and the MBL-MASP complex. This means that the dependence of the initial velocity for the cleavage reaction on substrate concentration can be described by a rectangular hyperbola and the constants Km (Michaelis constant which equates to the affinity between enzyme and substrate) and Vmax (maximal velocity of the reaction) can be derived from a non-linear regression fit of the data. […]
# The substrate (2Abz-[…]-Lys(Dnp)-NH2) includes the four amino acids before and after the C4 cleavage site and an aminobenzoic acid (Abz) fluorescent group attached to its N-terminal end. […] The change in fluorescence can then be measured and is proportional to the proteolytic activity of the enzyme.
# The substrate and enzymes (C1s (10 μg/mL) or purified MBL material) are incubated for several minutes in a fluorescence plate reader set at 37° C. 100 μL of diluted substrate is then transferred into wells containing 100 μL diluted enzyme (C1s or purified MBL material) and the kinetics of fluorescence is measured as follows: excitation=320 nm; emission=420 nm. […]
# [2] = test system: C4b deposition from MBL-deficient human serum on solid-phase mannan; assay: Functional complement (C4) deposition assay; type: biochemical; settings: for Complement activation capacity (in words): Example 4 titration, 1-100 μg/ml
# Procedure: All quantitation assays were standardised using an international, primary standard pool serum (Statens Serum Institut, Copenhagen, Denmark), containing 3.3 μg MBL/ml serum. For the sandwich ELISA and the C4 deposition assay, a standard curve was made with 1:25, 1:50, 1:75, 1:100, 1:150 and 1:200 dilutions of this serum, tested in triplicate. Standard dilutions for the mannan binding ELISA were 1:25, 1:50, 1:100, 1:150, 1:200, 1:300 and 1:400. Diluents were as detailed below. An in-house secondary control was prepared from pooled normal donor plasma and run in triplicate on each test plate, the results plotted for each run. Results of any test runs, in which values obtained for the in-house control MBL were outside +/−2SD from the previously determined mean value, led to rejection of the whole run. Run to run standard curves were overlayed to ensure a constant slope and thus provide another sensitive means of quality control.
# Microtitre plates (as above) were coated overnight at 4° C. with 1 μg/mL mannan (Sigma-Aldrich Pty Ltd, Castle Hill, Australia) in fresh 50 mM carbonate-bicarbonate buffer, pH 9.6. Normal donor plasmas were tested in triplicate, diluted to 1:25 in TBST with 15 mM CaCl2, pH 7.2 which was also the wash buffer. A 1:10 dilution was also tested and interpreted only to confirm low or near absent levels of C4 deposition in donors with low amounts of MBL. After 90 minutes at 22° C., wells were washed 5 times and MBL-deficient human serum (completely deficient in MBL, obtained with informed consent) diluted 1:20 in barbital buffer, […], 10 mM sodium barbitone and 5 mM CaCl2 was added to wells and incubated at 22° C. for 30 minutes to enable complement activation. Wells were washed 5 times and biotinylated rabbit anti-human C4 (Sigma-Aldrich Pty Ltd) biotinylated using Biotin Tag (Sigma-Aldrich Pty Ltd) which was added at 1:1500 in TBST. Following incubation at 22° C. for 90 minutes, wells were washed 5 times and 1:500 ExtrAvidin peroxidase (Sigma-Aldrich Pty Ltd) in TBST was added and incubated at 22° C. for 40 minutes. Colour development and reading was as for the quantitation assays.
# 1 μl of Statens Serum Institut (SSI) MBL Standard was arbitrarily assigned 1 unit of C4 deposition activity. The assay was standardised against the SSI standard. Between run CV for the assay at 1:25 was 9.4%.
# The positive control for MASP-2 activity was MASP containing, affinity-purified MBL complex. All fractions obtained in Example 1 were considered MASP-depleted with MASP activity measured as slope/sec less than 2.3 (range 0.5-2.3). […] Both MASP-depleted fractions and the MBL-MASP complex were titrated to provide MBL protein concentrations at 1 to 100 μg/ml. Fractions were assayed in parallel in the mannan-binding and C4-deposition assays as described in this document. The result from the Mannan-binding assay was plotted against C4 activity for each fraction.
# The fractions supplied in Example 3 were pooled according to total protein concentration. […] The two MASP-depleted MBL pools were again titrated in the range of 1-100 μg/ml in parallel with the MBL-MASP complex. All samples were assayed on both the Mannan-binding and C4-deposition assays in parallel. Actual MBL quantification (mannan-binding assay) results were graphed against corresponding C4 activation capability for the fraction.
substance,measurement,setting,value
"2Abz-GLQRALEI-Lys(Dnp)-NH2 ([2Abz]GLQRALEIK(Dnp)-NH2; N-terminus assumed; SMILES CC[C@H](C)[C@H](NC(=O)[C@H](CCC(=O)O)NC(=O)[C@H](CC(C)C)NC(=O)[C@H](C)NC(=O)[C@H](CCCNC(=N)N)NC(=O)[C@H](CCC(N)=O)NC(=O)[C@H](CC(C)C)NC(=O)CNC(=O)c1ccccc1N)C(=O)N[C@@H](CCCCNc1ccc([N+](=O)[O-])cc1[N+](=O)[O-])C(N)=O) [C4 (P4-P4′), quenched fluorescent substrate with the four amino acids before and after the C4 cleavage site]",Affinity constant K0.5,[1],6.50 ± 0.32 µM
"MASP Pool 8-9: pool of MASP-depleted MBL fractions 8 and 9, total protein 35 μg/ml",Complement activation capacity (in words),[2],reached the high assay limit
same,C4,"[2]; MBL 1.122 ug/mL, Table 3",0.049 U/ul
same,C4,"[2]; MBL 2.032 ug/mL, Table 3",0.108 U/ul
same,C4,"[2]; MBL 4.278 ug/mL, Table 3",0.189 U/ul
same,C4,"[2]; MBL 6.506 ug/mL, Table 3",0.31 U/ul
same,C4,"[2]; MBL 7.362 ug/mL, Table 3",0.403 U/ul
same,C4,"[2]; MBL 8.995 ug/mL, Table 3",0.435 U/ul
same,C4,"[2]; MBL 10.205 ug/mL, Table 3",0.48 U/ul
same,C4,"[2]; MBL 12.718 ug/mL, Table 3",0.552 U/ul
same,C4,"[2]; MBL 20 ug/mL, Table 3",0.595 U/ul
same,C4,"[2]; MBL 30 ug/mL, Table 3",0.776 U/ul
same,C4,"[2]; MBL 35 ug/mL, Table 3",0.969 U/ul
"MASP-depleted Frac. 3: fraction 3 of purified MASP-depleted MBL from the Example 1 Sephacryl S-300 column, 40 μg/mL",C4,"[2]; MBL 1.02 ug/mL, Table 2",0.107 U/ul
same,C4,"[2]; MBL 2.1 ug/mL, Table 2",0.202 U/ul
same,C4,"[2]; MBL 2.57 ug/mL, Table 2",0.359 U/ul
same,C4,"[2]; MBL 5.65 ug/mL, Table 2",0.568 U/ul
same,C4,"[2]; MBL 7.97 ug/mL, Table 2",0.761 U/ul
same,C4,"[2]; MBL 10.53 ug/mL, Table 2",0.818 U/ul
same,C4,"[2]; MBL 12 ug/mL, Table 2",xs
same,C4,"[2]; MBL 16 ug/mL, Table 2",xs
same,C4,"[2]; MBL 20 ug/mL, Table 2",xs
same,C4,"[2]; MBL 30 ug/mL, Table 2",xs
same,C4,"[2]; MBL 40 ug/mL, Table 2",xs
"MASP-depleted Frac. 5: fraction 5 of purified MASP-depleted MBL from the Example 1 Sephacryl S-300 column, 80 μg/mL",C4,"[2]; MBL 1.32 ug/mL, Table 2",0.081 U/ul
same,C4,"[2]; MBL 2.49 ug/mL, Table 2",0.137 U/ul
same,C4,"[2]; MBL 5.11 ug/mL, Table 2",0.304 U/ul
same,C4,"[2]; MBL 7.83 ug/mL, Table 2",0.417 U/ul
same,C4,"[2]; MBL 8.79 ug/mL, Table 2",0.465 U/ul
same,C4,"[2]; MBL 10 ug/mL, Table 2",0.671 U/ul
same,C4,"[2]; MBL 12 ug/mL, Table 2",0.716 U/ul
same,C4,"[2]; MBL 16 ug/mL, Table 2",0.805 U/ul
same,C4,"[2]; MBL 20 ug/mL, Table 2",0.762 U/ul
same,C4,"[2]; MBL 30 ug/mL, Table 2",0.906 U/ul
same,C4,"[2]; MBL 40 ug/mL, Table 2",xs
same,C4,"[2]; MBL 80 ug/mL, Table 2",xs
"MASP-depleted Pool 3-7: pool of MASP-depleted MBL fractions 3-7, total protein 85 μg/ml",Complement activation capacity (in words),[2],reached excess
same,C4,"[2]; MBL 1.124 ug/mL, Table 3",0.043 U/ul
same,C4,"[2]; MBL 1.677 ug/mL, Table 3",0.104 U/ul
same,C4,"[2]; MBL 3.905 ug/mL, Table 3",0.25 U/ul
same,C4,"[2]; MBL 5.617 ug/mL, Table 3",0.38 U/ul
same,C4,"[2]; MBL 7.151 ug/mL, Table 3",0.506 U/ul
same,C4,"[2]; MBL 7.796 ug/mL, Table 3",0.55 U/ul
same,C4,"[2]; MBL 9.377 ug/mL, Table 3",0.596 U/ul
same,C4,"[2]; MBL 14.045 ug/mL, Table 3",0.718 U/ul
same,C4,"[2]; MBL 20 ug/mL, Table 3",0.825 U/ul
same,C4,"[2]; MBL 40 ug/mL, Table 3",0.954 U/ul
same,C4,"[2]; MBL 80 ug/mL, Table 3",xs
same,C4,"[2]; MBL 85 ug/mL, Table 3",xs
